Measured values: patent US20220073592A1, “SYNTHETIC AND RECOMBINANT COLLAGEN PEPTIDES HAVING BIOLOGICAL ACTIVITY” (GELITA AG, priority 2018, published 2022)
Where no end group is shown, it is not given here. [ ]: non-standard residue; d: D form. Hyp = O=C(O)[C@@H]1C[C@@H](O)CN1

Experiments:
Assay type in all cases: cell-based
human dermal fibroblasts [1] = test: Blyscan glycosaminoglycan assay, proteoglycan synthesis by dermal fibroblasts; details: 0.5 mg/ml, two weeks stimulation; for increase in the synthesis of proteoglycans by dermal fibroblasts compared to untreated controls: hydroxylated peptides; for increase in collagen synthesis (in the proteoglycan assay, dermal fibroblasts): non-hydroxylated peptides
Procedure: The human cells used were obtained from tebu-bio GmbH, Offenbach, Germany. The chondrocytes (Cat. No. 402-05a) or dermal fibroblasts (Cat. No. 106-05a) were first sown in 12-well culture plates and cultured at 37° C., 5% CO2 in Ham's F12 medium, to which 10% fetal calf serum, 20 U/ml penicillin-streptomycin and 50 μg/ml ascorbic acid were added. On every other day, the culture medium was replaced by new culture medium until the cells had reached 80% confluence. […] The Blyscan glycosaminoglycan assay (Article No. 054B3000, 2019, tebu-bio, Offenbach, Germany, or Biocolor Ltd., UK) was used to determine proteoglycans. The biosynthesis of proteoglycans was determined after stimulating dermal fibroblasts for two weeks. According to the manufacturer's instructions, after discarding the culture medium, the cell layers were covered with 1 ml of papain extraction solution and incubated for three hours at 65° C. with vigorous shaking. The cell suspensions were then centrifuged (10,000 g, 10 min) and the supernatants were collected. After adding 1 ml of Blyscan dye solution and shaking (30 min), the supernatants were centrifuged again (12,000 rpm, 10 min) and then discarded. The isolated proteoglycan pellets were resuspended in 500 μl of dissociation solution. A photometric determination of the synthesized proteoglycan in 200 μl sample solution was carried out at a wavelength of 656 nm in comparison to untreated control experiments.

human dermal fibroblasts [2] = test: Sircol collagen assay, collagen synthesis by dermal fibroblasts; details: 0.5 mg/ml peptide, three weeks stimulation
Procedure: (§1) The human cells used were obtained from tebu-bio GmbH, Offenbach, Germany. The chondrocytes (Cat. No. 402-05a) or dermal fibroblasts (Cat. No. 106-05a) were first sown in 12-well culture plates and cultured at 37° C., 5% CO2 in Ham's F12 medium, to which 10% fetal calf serum, 20 U/ml penicillin-streptomycin and 50 μg/ml ascorbic acid were added. On every other day, the culture medium was replaced by new culture medium until the cells had reached 80% confluence. […] To investigate the collagen metabolism, the amount of newly synthesized collagen was determined after stimulating the cells with 0.5 mg/ml BCP for three weeks. The synthesized collagen was isolated using the Sircol assay (Article No. 054S5000, 2019, tebu-bio, Offenbach, Germany, or Biocolor Ltd., UK) according to the manufacturer's instructions. In brief, the culture medium was initially discarded and the adherent cell layers were digested with 0.1 mg pepsin solution in 0.5 M acetic acid at 4° C. overnight. The cell suspensions were neutralized by adding 100 μl of an acid-neutralizing reagent. The synthesized collagen was then separated off by adding 200 μl of an isolation and concentration solution with vigorous shaking at 4° C. overnight. After centrifugation (12,000 rpm, 10 min) and discarding the supernatant, the isolated collagen was resuspended in 1 ml of Sircol dye solution. After 30 minutes of shaking and another centrifugation, the collagen pellet was covered with 750 μl of cold acidic solid washing reagent. After another centrifugation, the supernatant was again discarded and the enriched collagen was taken up in 250 μl of alkaline solution. In each case 200 μl of the sample solutions were used for photometric quantification of the synthesized collagen. The absorbance was measured at a wavelength of 492 nm. The amount of collagen synthesized in each case was determined on the basis of standardized collagen solutions.

human chondrocytes [3] = test: Sircol collagen assay, collagen synthesis by chondrocytes; details: 0.5 mg/ml peptide, three weeks stimulation
Procedure: as §1

human chondrocytes [4] = test: Blyscan glycosaminoglycan assay, proteoglycan synthesis by chondrocytes; details: 0.5 mg/ml; for increase in collagen synthesis (in the proteoglycan assay, chondrocytes): hydroxylated peptides; for increase in the synthesis of proteoglycans by chondrocytes compared to untreated controls: non-hydroxylated peptides

## Gly-Leu-4Hyp-Gly-Lys-Met-Gly-Val-Phe-Gly-Leu-Thr-Gly-Pro-Ile-Gly-Pro-4Hyp-Gly-Pro-Trp-Gly-Val-4Hyp-Gly-His-Lys-Gly-Tyr-Leu-Gly-Pro-Thr (GL[Hyp]GKMGVFGLTGPIGP[Hyp]GPWGV[Hyp]GHKGYLGPT) [SEQ ID No. 27, collagen peptide comprising 33 amino acids]
Human dermal fibroblasts [1]
  increase in the synthesis of proteoglycans by dermal fibroblasts compared to untreated controls: 26%
Human dermal fibroblasts [2]
  increase in collagen synthesis by dermal fibroblasts compared to untreated controls: 27%

## Gly-Ala-4Hyp-Gly-Lys-Asp-Gly-Val-Arg-Gly-Leu-Thr-Gly-Pro-Ile-Gly-Pro-4Hyp-Gly-Pro-Ala-Gly-Ala-4Hyp (GA[Hyp]GKDGVRGLTGPIGP[Hyp]GPAGA[Hyp]) [SEQ ID No. 8, collagen peptide comprising 24 amino acids]
Human dermal fibroblasts [1]
  increase in the synthesis of proteoglycans by dermal fibroblasts compared to untreated controls: 23%
Human chondrocytes [3]
  increase in collagen synthesis by chondrocytes compared to untreated controls: 24%
Human chondrocytes [4]
  increase in collagen synthesis (in the proteoglycan assay, chondrocytes): 20%
Human dermal fibroblasts [2]
  increase in collagen synthesis by dermal fibroblasts compared to untreated controls: 37%

## Gly-Ala-4Hyp-Gly-Lys-Asp-Gly-Val-Arg-Gly-Leu-Thr-Gly-4Hyp-Ile-Gly-4Hyp-4Hyp-Gly-4Hyp-Ala-Gly-Ala-4Hyp-Gly-Asp-Lys-Gly-Glu-Ala-Gly-4Hyp-Ser (GA[Hyp]GKDGVRGLTG[Hyp]IG[Hyp][Hyp]G[Hyp]AGA[Hyp]GDKGEAG[Hyp]S) [SEQ ID No. 25, collagen peptide comprising 33 amino acids]
Human dermal fibroblasts [1]
  increase in the synthesis of proteoglycans by dermal fibroblasts compared to untreated controls: 23%
Human chondrocytes [3]
  increase in collagen synthesis by chondrocytes compared to untreated controls: 19%
Human dermal fibroblasts [2]
  increase in collagen synthesis by dermal fibroblasts compared to untreated controls: 27%

## Gly-Ala-4Hyp-Gly-Lys-Asp-Gly-Val-Arg-Gly-Leu-Thr-Gly-Pro-Ile-Gly-Pro-4Hyp-Gly-Pro-Ala-Gly-Ala-4Hyp-Gly-Asp-Lys-Gly-Glu-Ala-Gly-Pro-Ser-Gly-Pro-Ala-Gly-Pro-Thr-Gly-Ala-Arg-Gly-Ala-4Hyp-Gly-Asp-Arg-Gly-Glu-4Hyp-Gly-Pro-4Hyp-Gly-Pro-Ala-Gly-Phe-Ala-Gly-Pro-4Hyp-Gly-Ala-Asp-Gly-Gln-4Hyp-Gly-Ala-Lys-Gly-Glu-Pro-Gly-Asp-Ala-Gly-Ala-Lys-Gly-Asp-Ala-Gly-Pro-Pro-Gly-Pro-Ala [SEQ ID No. 20]
Human dermal fibroblasts [1]
  increase in the synthesis of proteoglycans by dermal fibroblasts compared to untreated controls: 29%
Human chondrocytes [4]
  increase in collagen synthesis (in the proteoglycan assay, chondrocytes): 15%
Human dermal fibroblasts [2]
  increase in collagen synthesis by dermal fibroblasts compared to untreated controls: 37%

## GAPGKDGVRGL [SEQ ID No. 11, collagen peptide comprising 11 amino acids]
Human dermal fibroblasts [1]
  increase in collagen synthesis (in the proteoglycan assay, dermal fibroblasts): 18%
Human chondrocytes [3]
  increase in collagen synthesis by chondrocytes compared to untreated controls: 16%
Human chondrocytes [4]
  increase in the synthesis of proteoglycans by chondrocytes compared to untreated controls: 28%
Human dermal fibroblasts [2]
  increase in collagen synthesis by dermal fibroblasts compared to untreated controls: 19%

## Gly-Pro-4Hyp-Gly-Pro-Leu-Gly-Met-Lys-Gly-Leu-4Hyp-Gly-Val-Trp-Gly-Pro-Phe-Gly-Leu-4Hyp-Gly-Thr-Pro-Gly-Pro-His-Gly-Ile-Thr-Gly-Tyr-Lys-Gly-Val [SEQ ID No. 29]
Human dermal fibroblasts [1]
  increase in the synthesis of proteoglycans by dermal fibroblasts compared to untreated controls: 21%
Human dermal fibroblasts [2]
  increase in collagen synthesis by dermal fibroblasts compared to untreated controls: 21%

## Gly-Pro-4Hyp-Gly-Pro-Val-Gly-Thr-Lys-Gly-Leu-4Hyp-Gly-Phe-Tyr-Gly-Pro-Leu-Gly-Ile-4Hyp-Gly-His-Pro-Gly-Pro-Trp-Gly-Met-Leu-Gly-Thr-Lys-Gly-Val [SEQ ID No. 30]
Human dermal fibroblasts [1]
  increase in the synthesis of proteoglycans by dermal fibroblasts compared to untreated controls: 22%
Human dermal fibroblasts [2]
  increase in collagen synthesis by dermal fibroblasts compared to untreated controls: 21%

## GPPGPAGEKGAPGADGPAGAPGTPGPQGIAGQRGV [SEQ ID No. 16, collagen peptide comprising 35 amino acids]
Human dermal fibroblasts [1]
  increase in collagen synthesis (in the proteoglycan assay, dermal fibroblasts): 18%
Human chondrocytes [3]
  increase in collagen synthesis by chondrocytes compared to untreated controls: 31%
Human chondrocytes [4]
  increase in the synthesis of proteoglycans by chondrocytes compared to untreated controls: 18%
Human dermal fibroblasts [2]
  increase in collagen synthesis by dermal fibroblasts compared to untreated controls: 22%

## Gly-Ala-4Hyp-Gly-Lys-Asp-Gly-Val-Arg-Gly-Leu (GA[Hyp]GKDGVRGL) [SEQ ID No. 17, collagen peptide comprising 11 amino acids]
Human dermal fibroblasts [1]
  increase in the synthesis of proteoglycans by dermal fibroblasts compared to untreated controls: 24%
Human chondrocytes [3]
  increase in collagen synthesis by chondrocytes compared to untreated controls: 33%
Human chondrocytes [4]
  increase in collagen synthesis (in the proteoglycan assay, chondrocytes): 31%
Human dermal fibroblasts [2]
  increase in collagen synthesis by dermal fibroblasts compared to untreated controls: 42%

## Gly-Val-4Hyp-Gly-Lys-Tyr-Gly-Val-Arg-Gly-Leu-Thr-Gly-Pro-Ile-Gly-Pro-4Hyp-Gly-Pro-Leu-Gly-Ile-4Hyp-Gly-Trp-Lys-Gly-Phe-Val-Gly-Pro-Thr (GV[Hyp]GKYGVRGLTGPIGP[Hyp]GPLGI[Hyp]GWKGFVGPT) [SEQ ID No. 23, collagen peptide comprising 33 amino acids]
Human dermal fibroblasts [1]
  increase in the synthesis of proteoglycans by dermal fibroblasts compared to untreated controls: 22%
Human chondrocytes [3]
  increase in collagen synthesis by chondrocytes compared to untreated controls: 19%
Human chondrocytes [4]
  increase in collagen synthesis (in the proteoglycan assay, chondrocytes): 11%
Human dermal fibroblasts [2]
  increase in collagen synthesis by dermal fibroblasts compared to untreated controls: 39%

## Gly-Ala-4Hyp-Gly-Lys-Asp-Gly-Val-Arg-Gly-Leu-Thr-Gly-Pro-Ile-Gly-Pro-4Hyp-Gly-Pro-Ala-Gly-Ala-4Hyp-Gly-Asp-Lys-Gly-Glu-Ala-Gly-Pro-Ser-Gly-Pro-Ala-Gly-Pro-Thr-Gly-Ala-Arg-Gly-Ala-4Hyp-Gly-Asp-Arg-Gly-Glu-4Hyp-Gly-Pro-4Hyp-Gly-Pro-Ala-Gly [SEQ ID No. 19]
Human dermal fibroblasts [1]
  increase in the synthesis of proteoglycans by dermal fibroblasts compared to untreated controls: 29%
Human chondrocytes [3]
  increase in collagen synthesis by chondrocytes compared to untreated controls: 37%
Human chondrocytes [4]
  increase in collagen synthesis (in the proteoglycan assay, chondrocytes): 18%
Human dermal fibroblasts [2]
  increase in collagen synthesis by dermal fibroblasts compared to untreated controls: 40%

## His-His-His-His-His-His-Gly-Ala-4Hyp-Gly-Lys-Asp-Gly-Val-Arg-Gly-Leu-Thr-Gly-Pro-Ile-Gly-Pro-4Hyp-Gly-Pro-Ala-Gly-Ala-4Hyp-Gly-Asp-Lys-Gly-Glu-Ala-Gly-Pro-Ser (HHHHHHGA[Hyp]GKDGVRGLTGPIGP[Hyp]GPAGA[Hyp]GDKGEAGPS) [SEQ ID No. 26, collagen peptide comprising 39 amino acids]
Human dermal fibroblasts [1]
  increase in the synthesis of proteoglycans by dermal fibroblasts compared to untreated controls: 6%
Human chondrocytes [3]
  increase in collagen synthesis by chondrocytes compared to untreated controls: 12%
Human dermal fibroblasts [2]
  increase in collagen synthesis by dermal fibroblasts compared to untreated controls: 12%

## GAPGKDGVRGLTGPIGPPGPAGA [SEQ ID No. 12, collagen peptide comprising 23 amino acids]
Human dermal fibroblasts [1]
  increase in collagen synthesis (in the proteoglycan assay, dermal fibroblasts): 19%
Human chondrocytes [3]
  increase in collagen synthesis by chondrocytes compared to untreated controls: 24%
Human chondrocytes [4]
  increase in the synthesis of proteoglycans by chondrocytes compared to untreated controls: 23%
Human dermal fibroblasts [2]
  increase in collagen synthesis by dermal fibroblasts compared to untreated controls: 22%

## GAPGKDGVRGLTGPIGPPGPAGAPGDKGEAGPS [SEQ ID No. 2, collagen peptide comprising 33 amino acids]
Human dermal fibroblasts [1]
  increase in collagen synthesis (in the proteoglycan assay, dermal fibroblasts): 18%
Human chondrocytes [3]
  increase in collagen synthesis by chondrocytes compared to untreated controls: 16%
Human chondrocytes [4]
  increase in the synthesis of proteoglycans by chondrocytes compared to untreated controls: 22%
Human dermal fibroblasts [2]
  increase in collagen synthesis by dermal fibroblasts compared to untreated controls: 22%

## Gly-Leu-4Hyp-Gly-Lys-Tyr-Gly-Val-His-Gly-Leu-Thr-Gly-Pro-Leu-Gly-Pro-4Hyp-Gly-Pro-Met-Gly-Ile-4Hyp-Gly-Trp-Lys-Gly-Phe-Val-Gly-Pro-Thr (GL[Hyp]GKYGVHGLTGPLGP[Hyp]GPMGI[Hyp]GWKGFVGPT) [SEQ ID No. 28, collagen peptide comprising 33 amino acids]
Human dermal fibroblasts [1]
  increase in the synthesis of proteoglycans by dermal fibroblasts compared to untreated controls: 22%
Human dermal fibroblasts [2]
  increase in collagen synthesis by dermal fibroblasts compared to untreated controls: 22%

## Gly-Ala-4Hyp-Gly-Lys-Asp-Gly-Val-Arg-Gly-Leu-Thr-Gly-Pro-Ile-Gly-Pro-4Hyp-Gly-Pro-Ala-Gly-Ala (GA[Hyp]GKDGVRGLTGPIGP[Hyp]GPAGA) [SEQ ID No. 18, collagen peptide comprising 23 amino acids]
Human dermal fibroblasts [1]
  increase in the synthesis of proteoglycans by dermal fibroblasts compared to untreated controls: 31%
Human chondrocytes [3]
  increase in collagen synthesis by chondrocytes compared to untreated controls: 32%
Human chondrocytes [4]
  increase in collagen synthesis (in the proteoglycan assay, chondrocytes): 25%
Human dermal fibroblasts [2]
  increase in collagen synthesis by dermal fibroblasts compared to untreated controls: 40%
